Assay results taken from patent US10023566B2, “Dasatinib salts” (EGIS GYOGYSZERGYAR ZRT, priority 2014, dated 2018).
Where a name gives a salt, the structure may show the parent alone.

Legend:
Assay type in all cases: physicochemical
[1] = Determination of the solubility of dasatinib salts (shake flask 37° C., HPLC); details: 6 hour shaking, 18 hour sedimentation
Procedure: Considering the above mentioned facts our solubility measurements were carried out on three different pH values (pH 1, pH 4.5 and pH 6.8).
Determination of the Solubility of Dasatinib Salts (Measurement Conditions)
Preparation of Sample Mixture:
• 100 mg of dasatinib salt are weighed in a 20 ml Erlenmeyer flask whereupon 10 ml of medium are added and it is shaked for 6 hours at a temperature of 37° C. on 100 rpm. After sedimentation for 18 hours at a temperature of 37° C. the settled solution is filtered through a sieve with 0.45 μm pores and the solution is diluted up to 20 ml with medium.

[2] = Water adsorption, DVS (dynamic vapor sorption) analysis; details: after drying
Source text: As it is disclosed in WO2007/035874 paragraph [0096] dasatinib mono HCl includes a cavity or channel, which may be partially or fully occupied by solvent or a mixture of solvent. […] Further salts disclosed in the prior art also contain solvent adsorbed on the surface or in the form of solvate. These forms are nor suitable for pharmaceutical application. […] Therefore we carried out our comparative experiments between dasatinib base monohydrate and the new salts of the present invention.

[3] = Storage stability test: quantity of impurities by HPLC and change thereof
Source text: In course of the thermal stress test and the forced stability test the decompositions in a pharmaceutical composition occurring during storage are constructed essentially in an accelerated manner. […] The advantageous properties of the new dasatinib salts of the present invention are significant from the point of view of the formulation of pharmaceutical compositions, the storage and the minimization of the harmful effects exerted in the human body.
The stability of the new dasatinib salts of the present invention were subjected to detailed tests.
Our results regarding the quantity of the impurities and change thereof are shown in the tables below (expressed in percentage).
Measuring conditions are the same as the determination of purity profile below.
Determination of the Impurities of Dasatinib Salts by HPLC (Measurement Conditions)

[4] = 3 week, 40° C./70% RH, listed as Anhydrous dasatinib p-toluenesulfonic acid (1:1) salt Form I

Structure (SMILES)	solubility ([1]; pH = 4.5 phosphate buffer)	solubility ([1]; pH = 6.8 phosphate buffer)	solubility ([1]; 0.1M HCl (pH 1))	further results
Cc1nc(Nc2ncc(C(=O)Nc3c(C)cccc3Cl)s2)cc(N2CCN(CCO)CC2)n1 [dasatinib mesilate (1:2), N-(2-Chloro-6-methylphenyl)-2-[6-[4-(2-hydroxyethyl)piperazin-1-yl]-2-methylpyrimidin-4-ylamino]-1,3-thiazole-5-carboxamide]	0.805 mg/mL	0.017 mg/mL		
Cc1nc(Nc2ncc(C(=O)Nc3c(C)cccc3Cl)s2)cc(N2CCN(CCO)CC2)n1 [dasatinib mono HCl salt, N-(2-Chloro-6-methylphenyl)-2-[6-[4-(2-hydroxyethyl)piperazin-1-yl]-2-methylpyrimidin-4-ylamino]-1,3-thiazole-5-carboxamide]				water adsorption property (in words) [2]: changeable, especially after drying
Cc1nc(Nc2ncc(C(=O)Nc3c(C)cccc3Cl)s2)cc(N2CCN(CCO)CC2)n1 [dasatinib tosilate (1:1) Form I anhydrate] [N-(2-Chloro-6-methylphenyl)-2-[6-[4-(2-hydroxyethyl)piperazin-1-yl]-2-methylpyrimidin-4-ylamino]-1,3-thiazole-5-carboxamide]	4.510 mg/mL		5.365 mg/mL	Impurity, unnamed, RT 15.5 ([3]; 3 week, 25° C./90% RH): 0.03%; Impurity Summary (%) ([3]; 3 week, 25° C./90% RH, listed as Anhydrous dasatinib p-toluenesulfonic acid (1:1) salt Form I): 0.03%; Impurity Ethylene-diamine intermedier (RT 9.0-9.3) [3, 4]: 0.03%; Impurity Summary (%) [3, 4]: 0.03%; Impurity, unnamed, RT 15.5 ([3]; starting sample): 0.03%; Impurity Summary (%) ([3]; starting sample, listed as Anhydrous dasatinib p-toluenesulfonic acid (1:1) salt Form I): 0.03%; stability in the storage tests (in words) ([3]; storage tests carried out under various conditions, thermal stress and forced stability tests, listed as anhydrous dasatinib p-toluenesulfonic acid (1:1) salt Form I): particularly stable

More lines, main results first:

solubility ([1]; pH = 4.5 phosphate buffer)	solubility ([1]; pH = 6.8 phosphate buffer)	solubility ([1]; 0.1M HCl (pH 1))	Structure (SMILES)	further results
2.805 mg/mL	0.011 mg/mL	5.702 mg/mL	Cc1nc(Nc2ncc(C(=O)Nc3c(C)cccc3Cl)s2)cc(N2CCN(CCO)CC2)n1 [dasatinib tosilate (1:1) Form II anhydrate] [N-(2-Chloro-6-methylphenyl)-2-[6-[4-(2-hydroxyethyl)piperazin-1-yl]-2-methylpyrimidin-4-ylamino]-1,3-thiazole-5-carboxamide]	
1.641 mg/mL	0.010 mg/mL	4.898 mg/mL	Cc1nc(Nc2ncc(C(=O)Nc3c(C)cccc3Cl)s2)cc(N2CCN(CCO)CC2)n1 [dasatinib tosilate (1:1) dihydrate, N-(2-Chloro-6-methylphenyl)-2-[6-[4-(2-hydroxyethyl)piperazin-1-yl]-2-methylpyrimidin-4-ylamino]-1,3-thiazole-5-carboxamide]	
